Several values for one entry are separate records, joined by “and”; a condition that tells them apart may be missing. Equal entries are not always repeated. Where two headings read alike, the source gives them in different places.
Legend:
bovine brain tubulin = assay: Inhibition of tubulin polymerisation (turbidimetric tubulin assembly); type: biochemical
Experimental: To evaluate the effect of the compounds on tubulin assembly in vitro[40], varying concentrations of compounds were preincubated with 10 μM bovine brain tubulin in 0.8M monosodium glutamate (pH adjusted to 6.6 with HCl in a 2.0M stock solution) at 30 °C and then cooled to 0 °C. After addition of 0.4 mM GTP, the mixtures were transferred to 0 °C cuvettes in a recording spectrophotometer and warmed to 30 °C. Tubulin assembly was followed turbidimetrically at 350 nm. […] The capacity of the test compounds to inhibit colchicine binding to tubulin was measured as described. The reaction mixtures contained 1 μM tubulin, 5 μM [^3H]colchicine and 5 μM test compound.

[1] = test system: U-937 cells overexpressing human Bcl-2 (U-937/Bcl-2); assay: MTT cytotoxicity assay, U-937/Bcl-2; type: cell-based; settings: U-937/Bcl-2, MTT, read-out: IC50, inhibition of cell growth
Experimental: U-937 (human myeloid leukaemia) cells from DSMZ (German Collection of Microorganisms and Cell Cultures, Braunschweig, Germany) and U-937 cells overexpressing human Bcl-2 protein (designated U-937/Bcl-2, donated by Dr Jacqueline Bréard, INSERM U749, Faculté de Pharmacie Paris-Sud., Châtenay-Malabry, France) were cultured in RPMI-1640 medium containing 10% (v/v) heat-inactivated foetal bovine serum, 100 μg/mL streptomycin and 100 U/mL penicillin, incubated at 37 °C in a humidified atmosphere containing 5% CO2 as described. The functioning of U-937/Bcl-2 cells was tested using the cytotoxic agent 1-β-D-arabino-furanosylcytosine as previously described. Human peripheral blood mononuclear cells (PBMC) were isolated from heparin-anticoagulated blood of healthy volunteers by centrifugation with Ficoll-Paque Plus (GE Healthcare Bio-Sciences AB, Uppsala, Sweden). PBMC were also stimulated with phytohemagglutinin (2 μg/mL) for 48 h before the experimental treatment. The trypan blue dye exclusion method was used for counting the living/dead cells by a hematocytometer with 95% viability in all experiments. The cytotoxicity of compounds was evaluated by the colorimetric 3-(4,5-dimethyl-2-thiazolyl-)-2,5-diphenyl-2H-tetrazolium bromide (MTT) assay as previously described. Briefly, 5 × 10^3 exponentially growing cells were seeded in 96-well microculture plates with increasing concentrations of compounds for 72 h. After the addition of MTT (0.5 mg/mL), cells were incubated at 37 °C for 4 h. Sodium dodecyl sulphate (10% w/v) in 0.05 M HCl was added to the wells and then incubated at room temperature overnight in the dark. Absorbance was measured at 570 nm. […] Values are mean ± SE from at least three independent experiments, each performed in triplicate. Compounds were dissolved in DMSO and kept in the dark at 25 °C.

U-937/Bcl-2 cells = assay: Cell cycle phase distribution and apoptosis, flow cytometry (propidium iodide) and fluorescence microscopy, U-937/Bcl-2; type: cell-based, human
Experimental: (§1) Fluorescent microscopy and flow cytometric analysis of propidium iodide-stained cells were performed as described. Briefly, cells were harvested and fixed in 3% paraformaldehyde and incubated at room temperature for 10 min. The fixative was removed, and the cells were washed with PBS, resuspended in 30–50 μL of PBS containing 20 μg/mL bis-benzimide trihydrochloride (Hoechst 33258) and incubated at room temperature for 15 min. Stained nuclei were visualized using a Zeiss fluorescence microscope.
(§2) Flow cytometric analysis was carried out using a BD FACSVerse™ cytometer (BD Biosciences, San Jose, CA, USA).

U-937 cells = assay: Cell cycle phase distribution and apoptosis, flow cytometry (propidium iodide) and fluorescence microscopy, U-937; type: cell-based, human
Experimental: as §1, §2

[2] = test system: human colon adenocarcinoma (HT29) cells; assay: Antiproliferative assay, cell counting (Coulter Counter), HT29; type: cell-based
Experimental: (§3) Human cervix carcinoma (HeLa), human colon carcinoma (HT29), human breast carcinoma (MCF-7) and human lymphoma (HL-60) cells (3–5 × 10^4 cells) and a serial (five-fold) dilution of the test compounds were added to a 96-well microtiter plate. The cells were incubated for 72–96 h (depending on the tumor cell line) at 37 °C in a humidified 5% CO2 atmosphere. At the end of the incubation period, the cells were counted in a Coulter Counter (Coulter Electronics Ltd, Harpenden Herts, UK). […] The IC50 values represent the average (±standard deviation) of at least two to four independent experiments.

[3] = test system: human promyelocytic leukemia (HL-60) cells; assay: Antiproliferative assay, cell counting (Coulter Counter), HL-60; type: cell-based; settings: Homo sapiens; HL-60, 72–96 h; read-out: IC50, inhibition of proliferation
Experimental: as §3

Structure (SMILES): COC(=O)c1[nH]c2cc(OC)ccc2c1/C=C/C(=O)c1cc(OC)c(OC)c(OC)c1 [Compound 9e, (E)-Methyl 6-methoxy-3-(3-oxo-3-(3,4,5-trimethoxyphenyl)prop-1-en-1-yl)-1H-indole-2-carboxylate]
- fold less potent than CA-4 as inhibitor of tubulin polymerisation (bovine brain tubulin; ratio of tubulin assembly IC50 values): 10 fold
- IC50 (bovine brain tubulin; tubulin 10 µM, 20 min at 30 °C, read-out: Tubulin assembly IC50±SD): 6200 ± 600 nM
- IC50 ([1]; Homo sapiens, U-937, 72 h): ~1000 nM
- IC50 ([1]; 72 h): 1100 ± 1000 nM
- fold increase in the percentage of apoptotic (hypodiploid) cells (U-937/Bcl-2 cells; U-937/Bcl-2, 1 μM, 72 h, versus control): ~20 fold
- % G1 (U-937/Bcl-2 cells; U-937/Bcl-2, 24 h, 0.3 µM): 24.7 ± 0.5 %
- % G2-M (U-937/Bcl-2 cells; U-937/Bcl-2, 24 h, 0.3 µM): 40.1 ± 1.3 %
- % S (U-937/Bcl-2 cells; U-937/Bcl-2, 24 h, 0.3 µM): 23.2 ± 0.2%
- % Sub-G1 (U-937/Bcl-2 cells; U-937/Bcl-2, 24 h, 0.3 µM): 9.8 ± 0.5 %
- % G1 (U-937/Bcl-2 cells; U-937/Bcl-2, 24 h, 1 µM): 17.4 ± 0.2 %
- % G2-M (U-937/Bcl-2 cells; U-937/Bcl-2, 24 h, 1 µM): 47.3 ± 1.2 %
- % S (U-937/Bcl-2 cells; U-937/Bcl-2, 24 h, 1 µM): 18.1 ± 1.7 %
- % Sub-G1 (U-937/Bcl-2 cells; U-937/Bcl-2, 24 h, 1 µM): 15% and 14.7 ± 0.7 %
- % G1 (U-937/Bcl-2 cells; U-937/Bcl-2, 48 h, 0.3 µM): 23.0 ± 0.7 %
- % G2-M (U-937/Bcl-2 cells; U-937/Bcl-2, 48 h, 0.3 µM): 34.3 ± 0.5 %
- % S (U-937/Bcl-2 cells; U-937/Bcl-2, 48 h, 0.3 µM): 22.4 ± 0.2%
- % Sub-G1 (U-937/Bcl-2 cells; U-937/Bcl-2, 48 h, 0.3 µM): 14.6 ± 0.4 %
- % G1 (U-937/Bcl-2 cells; U-937/Bcl-2, 48 h, 1 µM): 13.0 ± 0.9 %
- % G2-M (U-937/Bcl-2 cells; U-937/Bcl-2, 48 h, 1 µM): 33.2 ± 0.9 %
- % S (U-937/Bcl-2 cells; U-937/Bcl-2, 48 h, 1 µM): 15.4 ± 0.1 %
- % Sub-G1 (U-937/Bcl-2 cells; U-937/Bcl-2, 48 h, 1 µM): 28% and 28.0 ± 0.7 %
- % G1 (U-937/Bcl-2 cells; U-937/Bcl-2, 72 h, 0.3 µM): 22.4 ± 0.4 %
- % G2-M (U-937/Bcl-2 cells; U-937/Bcl-2, 72 h, 0.3 µM): 31.3 ± 1.3 %
- % S (U-937/Bcl-2 cells; U-937/Bcl-2, 72 h, 0.3 µM): 21.8 ± 0.8%
- % Sub-G1 (U-937/Bcl-2 cells; U-937/Bcl-2, 72 h, 0.3 µM): 17.6 ± 0.5 %
- % G1 (U-937/Bcl-2 cells; U-937/Bcl-2, 72 h, 1 µM): 12.8 ± 0.5 %
- % G2-M (U-937/Bcl-2 cells; U-937/Bcl-2, 72 h, 1 µM): 23.1 ± 2.2%
- % S (U-937/Bcl-2 cells; U-937/Bcl-2, 72 h, 1 µM): 16.0 ± 0.7%
- % Sub-G1 (U-937/Bcl-2 cells; U-937/Bcl-2, 72 h, 1 µM): 36% and 36.1 ± 3.3 %
- % G1 (U-937 cells; U-937, 24 h, 3 µM): 43.2 ± 0.2%
- % G2-M (U-937 cells; U-937, 24 h, 3 µM): 24.5 ± 0.1%
- % S (U-937 cells; U-937, 24 h, 3 µM): 24.4 ± 0.1%
- % Sub-G1 (U-937 cells; U-937, 24 h, 3 µM): 6.4 ± 0.4%
- % G1 (U-937 cells; U-937, 24 h, 10 µM): 33.0 ± 2.1 %
- % G2-M (U-937 cells; U-937, 24 h, 10 µM): 23.2 ± 0.3%
- % S (U-937 cells; U-937, 24 h, 10 µM): 27.1 ± 0.5%
- % Sub-G1 (U-937 cells; U-937, 24 h, 10 µM): 14.3 ± 1.6 %
- % G1 (U-937 cells; U-937, 48 h, 3 µM): 53.6 ± 0.3%
- % G2-M (U-937 cells; U-937, 48 h, 3 µM): 16.5 ± 0.1%
- % S (U-937 cells; U-937, 48 h, 3 µM): 24.6 ± 0.3%
- % Sub-G1 (U-937 cells; U-937, 48 h, 3 µM): 4.5 ± 0.2%
- % G1 (U-937 cells; U-937, 48 h, 10 µM): 39.7 ± 1.1 %
- % G2-M (U-937 cells; U-937, 48 h, 10 µM): 17.6 ± 0.0%
- % S (U-937 cells; U-937, 48 h, 10 µM): 23.3 ± 0.1%
- % Sub-G1 (U-937 cells; U-937, 48 h, 10 µM): 17.9 ± 1.2 %
- % G1 (U-937 cells; U-937, 72 h, 3 µM): 52.0 ± 0.9 %
- % G2-M (U-937 cells; U-937, 72 h, 3 µM): 14.3 ± 0.2%
- % S (U-937 cells; U-937, 72 h, 3 µM): 21.2 ± 0.7%
- % Sub-G1 (U-937 cells; U-937, 72 h, 3 µM): 10.8 ± 0.1%
- % G1 (U-937 cells; U-937, 72 h, 10 µM): 44.5 ± 1.4 %
- % G2-M (U-937 cells; U-937, 72 h, 10 µM): 14.1 ± 0.4%
- % S (U-937 cells; U-937, 72 h, 10 µM): 21.4 ± 0.6%
- % Sub-G1 (U-937 cells; U-937, 72 h, 10 µM): 18.4 ± 1.2 %
- fold more potent than CA-4 ([2]; HT29 cell line, ratio of IC50 values): 8–24 fold
- IC50 ([2]; Homo sapiens, HT-29, HT29, 72–96 h, read-out: IC50, inhibition of proliferation): 160 ± 20 nM
- IC50 [3]: 18000 ± 14000 nM

— publication PMC6116705, “Design, synthesis, in vitro antiproliferative activity and apoptosis-inducing studies of 1-(3′,4′,5′-trimethoxyphenyl)-3-(2′-alkoxycarbonylindolyl)-2-propen-1-one derivatives obtained by a molecular hybridisation approach” (Journal of Enzyme Inhibition and Medicinal Chemistry, 2018)
